IC50 data for 32 compounds are collected here from patent US20240352046A1, “ECTONUCLEOTIDE PYROPHOSPHATASE-PHOSPHODIESTERASE-1 (ENPP1) INHIBITORS AND USES THEREOF” (1cBio, Inc., priority 2020, published 2024).

A value given as a limit tells only on which side of the number the result lay.

Sequence of ENPP-1 (Ectonucleotide Pyrophosphatase/Phosphodiesterase 1) (P22413 whole entry): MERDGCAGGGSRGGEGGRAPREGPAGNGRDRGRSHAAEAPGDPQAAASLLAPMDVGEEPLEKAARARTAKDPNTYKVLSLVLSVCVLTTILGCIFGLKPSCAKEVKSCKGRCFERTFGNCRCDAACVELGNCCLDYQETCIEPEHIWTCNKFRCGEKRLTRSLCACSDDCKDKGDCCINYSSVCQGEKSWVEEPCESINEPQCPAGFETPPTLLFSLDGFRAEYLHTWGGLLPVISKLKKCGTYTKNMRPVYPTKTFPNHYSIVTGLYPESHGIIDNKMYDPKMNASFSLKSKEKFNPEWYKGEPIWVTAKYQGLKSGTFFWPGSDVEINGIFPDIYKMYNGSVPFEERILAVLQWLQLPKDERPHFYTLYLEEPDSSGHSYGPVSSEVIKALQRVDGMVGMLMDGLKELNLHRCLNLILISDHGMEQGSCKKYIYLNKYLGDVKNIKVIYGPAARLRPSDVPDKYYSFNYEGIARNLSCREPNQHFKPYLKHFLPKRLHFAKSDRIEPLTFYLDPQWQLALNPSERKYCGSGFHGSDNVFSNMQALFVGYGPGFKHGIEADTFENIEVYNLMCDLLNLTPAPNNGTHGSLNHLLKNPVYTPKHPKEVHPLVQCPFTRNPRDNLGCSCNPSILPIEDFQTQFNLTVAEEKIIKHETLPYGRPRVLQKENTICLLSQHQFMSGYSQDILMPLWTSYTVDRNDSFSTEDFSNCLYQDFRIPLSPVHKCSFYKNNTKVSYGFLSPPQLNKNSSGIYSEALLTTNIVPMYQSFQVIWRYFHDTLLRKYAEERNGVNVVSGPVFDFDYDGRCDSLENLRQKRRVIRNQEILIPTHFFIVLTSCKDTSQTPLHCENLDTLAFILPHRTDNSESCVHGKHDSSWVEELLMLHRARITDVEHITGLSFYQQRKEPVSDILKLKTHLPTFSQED

The test concerns the target ENPP-1 (Ectonucleotide Pyrophosphatase/Phosphodiesterase 1) (Homo sapiens (Human), UniProt P22413). Description: ENPP1 inhibition assay (AMP Glo, cGAMP substrate). The test is classed as biochemical. Conditions: cGAMP 20 μM substrate, ENPP1 1 nM. As to the method:
IC50 values of compounds against ENPP-1 (Ectonucleotide Pyrophosphatase/Phosphodiesterase 1) were determined at Integral BioSciences (India) using AMP Glo (Promega, Cat #V5011). Assay was performed in a 30 μL final volume in a white 96-well Half Area plate (Costar,Cat #3693). Dose response curve for the compounds were prepared in duplicates with starting conc. at 5 μM and a three-fold titration was performed. The reaction buffer consisted of 50 mM Tris (pH 8.0), 0.5 mM CaCl2), 1 μM ZnCl2, 250 mM NaCl and 0.1 mg/ml BSA. To the compound dilution, 15 μL of ENPP1 enzyme (R&D Systems; Cat #6136-EN-010) was added to each well (final conc. 1 nM) and the mix was pre-incubated for 15 min at RT. An equal volume (15 μL) containing cGAMP (Sigma, Cat #SML-1229) (final conc. 20 μM) was added to initiate the enzyme reaction and the reaction was incubated for 30 min at RT. The reaction was then stopped by heating at 90° C. for 3 minutes. 10 μl of reaction was then transferred to 384 well white, medium binding plates (Grenier, Cat #781075) to which 10 μl of AMP-Glo Reagent 1 was added and mixed well and incubated for 1 hour at 25° C. Following 60 min incubation, 20 μL of detection mixture was added to the enzyme reaction bringing the final volume to 40 μL. The reaction was further incubated for 60 min at RT after which the plates were read using BioTek Plate reader.
Analysis was done using the standard curve by non-linear regression, variable slope inhibitor curve fits (Graph-Pad Prism) and IC50's of compounds were determined wherever possible.
In the case of `Cc1cc(Cl)n2ncnc(N3CC(CCN(C)S(N)(=O)=O)C3)c12` [Compound 1.84, N-(2-(1-(7-chloro-5-methylpyrrolo[1,2-f][1,2,4]triazin-4-yl)azetidin-3-yl)ethyl)-N-methylsulfamide], the 50% inhibitory concentration (IC50) is greater than 2.25 µM.

The compound `Cc1cc(Cl)n2ncnc(N3CC4(CC(N(CCF)S(N)(=O)=O)C4)C3)c12` [Compound 1.127, N-[2-(7-chloro-5-methylpyrrolo[2,1-f][1,2,4]triazin-4-yl)-2-azaspiro[3.3]hept-6-yl]-2-fluoroethylsulfuric diamide] registered a concentration for half-maximal inhibition (IC50) of 0.043 µM.

`COc1cc2nncc(N3CC4(CC(N(C)S(N)(=O)=O)C4)C3)c2cc1OC` [Compound 1.68, 4(6-N-methylsulfamoylamino)-2-azaspiro[3.3]heptan-2-yl-6,7-dimethoxycinnoline] registered an IC50 of 0.003 µM.

With `Cc1cc(Br)n2ncnc(N3CC4(CC(N(C)S(N)(=O)=O)C4)C3)c12` [Compound 1.79, N-(2-(7-bromo-5-methylpyrrolo[1,2-f][1,2,4]triazin-4-yl)-2-azaspiro[3.3]heptan-6-yl)-N-methylsulfamamide], the midpoint of inhibition, the IC50, lay at 0.053 µM.

`COc1ccc2c(N3CC(CCNS(N)(=O)=O)C3)ncnc2c1OC` [Compound 1.31, 4-(3-(2-sulfamoylaminoethyl)azetidine-1-yl)-7,8-dimethoxyquinazoline]: the IC50 is greater than 3 µM.

`Cc1cc(Cl)n2ncnc(N3CC4(CC(N(C5CC5)S(N)(=O)=O)C4)C3)c12` [Compound 1.81, N-(2-(7-chloro-5-methylpyrrolo[2,1-f][1,2,4]triazin-4-yl)-2-azaspiro[3.3]heptan-6-yl)-N-cyclopropylsulfamamide] returned an IC50 of 0.245 µM.

Regarding `COc1cc2nc(C3CC3)nc(N3CC(CCNS(N)(=O)=O)C3)c2cc1OC` [Compound 1.25, 4-(3-(2-sulfamoylaminoethyl)azetidine-1-yl)-2-cyclopropyl-6,7-dimethoxyquinazoline], half-maximal inhibition (IC50) required 0.66 µM.

As for `CCCN(CCC1CN(c2ncnn3c(Cl)cc(C)c23)C1)S(N)(=O)=O` [Compound 1.95, N-(2-(1-(7-chloro-5-methylpyrrolo[2,1-f][1,2,4]triazin-4-yl)azetidin-3-yl)ethyl)-N-propylsulfamamide], the half-inhibitory concentration (IC50) was 1.88 µM.

In the case of `Cc1cc(Cl)n2nc(C(C)C)nc(N3CC4(CC(N(C)S(N)(=O)=O)C4)C3)c12` [Compound 1.101, N-(2-(7-chloro-2-isopropyl-5-methylpyrrolo[1,2-f][1,2,4]triazin-4-yl)-2-azaspiro[3.3]heptan-6-yl)-N-methylsulfamide], the IC50 is greater than 3 µM.

On to `COc1cc2ncnc(N3CC(CCC(=O)O)C3)c2cc1OC` [Compound 1.5, 3-(1-(6,7-dimethoxyquinazolin-4-yl)azetidin-3-yl)propanoic acid], for which the IC50 turned out to be 0.16 µM.

`COc1cc2ncnc(N3CC(CCCS(=O)(=O)O)C3)c2cc1OC` [Compound 1.65, 3-(1-(6,7-dimethoxyquinazolin-4-yl)azetidin-3-yl)propane-1-sulfonic acid] yielded an IC50 of 0.078 µM.

On to `Cc1cc(Cl)n2ncnc(N3CC4(CC(N(Cc5ccccc5)S(N)(=O)=O)C4)C3)c12` [Compound 1.112, N-benzyl-N-(2-(7-chloro-5-methylpyrrolo[2,1-f][1,2,4]triazin-4-yl)-2-azaspiro[3.3]heptan-6-yl)sulfamamide], for which 0.141 µM corresponded to half-maximal inhibition (IC50). This IC50 is about 1.8-fold higher than that of the compound before.

Take `NS(=O)(=O)NCCC1CN(c2ncnc3cc4c(cc23)OCO4)C1` [Compound 1.18, 8-(3-(2-sulfamoylaminoethyl)azetidine-1-yl)-[1,3]dioxolo[4,5-g]quinazoline]: the IC50 was greater than 3 µM.

Take `Cc1cc(Cl)n2ncnc(N3CC4(CC(N(CC5CCC(C(F)(F)F)CC5)S(N)(=O)=O)C4)C3)c12` (centres unmarked) [Compound 1.119, N-(2-(7-chloro-5-methylpyrrolo[2,1-f][1,2,4]triazin-4-yl)-2-azaspiro[3.3]heptan-6-yl)-N-((4-(trifluoromethyl)cyclohexyl)methyl)sulfamamide]: inhibition was half-maximal at 0.218 µM (IC50). That is a sub-micromolar value.

As to `CCc1nc(N2CC(CCNS(N)(=O)=O)C2)c2ccc(OC)cc2n1` [Compound 1.37, 2-ethyl-7-methoxy-4-[3-[2-(sulfamoylamino)ethyl]azetidin-1-yl]quinazoline], the IC50 is greater than 3 µM.

`Cn1ncc2c(N3CC4(CC(N(CC(F)F)S(N)(=O)=O)C4)C3)ncnc21` [Compound 1.121, N-(2,2-difluoroethyl)-N-(2-(1-methyl-1H-pyrazolo[3,4-d]pyrimidin-4-yl)-2-azaspiro[3.3]heptan-6-yl)sulfamamide] showed an IC50 of 0.565 µM.

As to `Cn1cnc2c(F)c3ncnc(N4CC(CCNS(N)(=O)=O)C4)c3cc21` [Compound 1.32, 8-(3-(2-sulfamoylaminoethyl)azetidine-1-yl)-4-fluoro-1-methyl-1H-imidazo[4,5-g]quinazoline], the IC50 is greater than 3 µM.

In the case of `Cc1cc(Cl)n2ncnc(N3CC4(CC(N(CC(C)(C)C)S(N)(=O)=O)C4)C3)c12` [Compound 1.113, N-(2-(7-chloro-5-methylpyrrolo[2,1-f][1,2,4]triazin-4-yl)-2-azaspiro[3.3]heptan-6-yl)-N-neopentylsulfamamide], the IC50 worked out at 0.169 µM.

For `COc1cccc2c(N3CC(CCNS(N)(=O)=O)C3)c(C#N)cnc12` [Compound 1.9, (2-(1-(3-cyano-8-methoxyquinolin-4-yl)azetidin-3-yl)ethyl)aminisulfonamide], the half-inhibitory concentration (IC50) was 0.032 µM.

The compound `Cc1cc(Cl)n2ncnc(N3CC4(CC(N(CC5CCC(F)(F)CC5)S(N)(=O)=O)C4)C3)c12` [Compound 1.118, N-(2-(7-chloro-5-methylpyrrolo[2,1-f][1,2,4]triazin-4-yl)-2-azaspiro[3.3]heptan-6-yl)-N-((4,4-difluorocyclohexyl)methyl)sulfamamide] gave a concentration for half-maximal inhibition (IC50) of 0.072 µM.

Consider `COc1cc2ncnc(N3CC(/C=C/S(N)(=O)=O)C3)c2cc1OC` [Compound 1.55, (E)-2-(1-(6,7-dimethoxyquinazolin-4-yl)azetidin-3-yl)ethenesulfonamide], for which the IC50 was 0.036 µM.

`COc1cc2ncnc(N3CC(CCNS(N)(=O)=O)C3)c2cc1C` [Compound 1.54, N-(2-[1-(7-methoxy-6-methylquinazolin-4-yl)azetidin-3-yl]ethyl)sulfuric diamide] came in with an IC50 of 1.68 µM.

For `Cc1cc(Cl)n2ncnc(N3CC4(CC(N(CCC(F)(F)F)S(N)(=O)=O)C4)C3)c12` [Compound 1.93, N-(2-(7-chloro-5-methylpyrrolo[2,1-f][1,2,4]triazin-4-yl)-2-azaspiro[3.3]heptan-6-yl)-N-(3,3,3-trifluoropropyl)sulfamamide], half-maximal inhibition (IC50) required 0.019 µM. This IC50 is about 88-fold lower than that of the compound before.

`Cc1cc(Cl)n2ncnc(N3CC4(CC(N(C5CCC5)S(N)(=O)=O)C4)C3)c12` [Compound 1.111, N-(2-(7-chloro-5-methylpyrrolo[2,1-f][1,2,4]triazin-4-yl)-2-azaspiro[3.3]heptan-6-yl)-N-cyclobutylsulfamamide] gave an IC50 of 0.398 µM.

On to `CN(C1CC2(C1)CN(c1ncnc3scc(-c4ccccc4)c13)C2)S(N)(=O)=O` [Compound 1.100, N-methyl-N-(2-(5-phenylthieno[2,3-d]pyrimidin-4-yl)-2-azaspiro[3.3]heptan-6-yl)sulfamamide], for which the IC50 is greater than 3 µM.

`COc1cc2ncc(C#N)c(N3CC4(CC(NS(N)(=O)=O)C4)C3)c2cc1OC` [Compound 1.24, 4-(6-sulfamoylamino-2-azaspiro[3.3]heptan-2-yl)-6,7-dimethoxyquinoline-3-carbonitrile] gave an IC50 of 0.002 µM.

Regarding `Cc1cc(Cl)n2nc(-c3ccc(F)cc3)nc(N3CC4(CC(N(C)S(N)(=O)=O)C4)C3)c12` [Compound 1.106, N-(2-(7-chloro-2-(4-fluorophenyl)-5-methylpyrrolo[2,1-f][1,2,4]triazin-4-yl)-2-azaspiro[3.3]heptan-6-yl)-N-methylsulfamamide], the IC50 was greater than 3 µM.

Turning to `COc1ccc2c(N3CC(CCNS(N)(=O)=O)C3)nc(C34CC5CC(CC(C5)C3)C4)nc2c1` [Compound 1.45, 2-(1-adamantyl)-7-methoxy-4-[3-[2-(sulfamoylamino)ethyl]azetidin-1-yl]quinazoline], the IC50 was greater than 3 µM.

In turn, `Cc1c(C#N)cn2ncnc(N3CC4(CC(N(C)S(N)(=O)=O)C4)C3)c12` [Compound 1.78, N-(2-(6-cyano-5-methylpyrrolo[1,2-f][1,2,4]triazin-4-yl)-2-azaspiro[3.3]heptan-6-yl)-N-methylsulfamamide] gave a concentration for half-maximal inhibition (IC50) of 0.964 µM.

Turning to `CN(C1CC2(C1)CN(c1nc(N)nc3[nH]cnc13)C2)S(N)(=O)=O` [Compound 1.108, N-(2-(2-amino-9H-purin-6-yl)-2-azaspiro[3.3]heptan-6-yl)-N-methylsulfamamide], the half-maximal inhibitory concentration (IC50) is greater than 3 µM.

On to `COc1cc2nc(-c3ccn(C)n3)nc(N3CC(CCNS(N)(=O)=O)C3)c2cc1OC` [Compound 1.36, 6,7-dimethoxy-2-(1-methylpyrazol-3-yl)-4-[3-[2-(sulfamoylamino)ethyl]azetidin-1-yl]quinazoline], for which the 50% inhibitory concentration (IC50) was determined as 0.464 µM.

Consider `Cc1cc(Cl)n2nc(C(F)F)nc(N3CC4(CC(N(C)S(N)(=O)=O)C4)C3)c12` [Compound 1.90], for which the IC50 is greater than 3 µM.
